From US9328331B2, “Compositions and methods for promoting beta cell maturity” (Joslin Diabetes Center, Inc., priority 2009, dated 2016)

Legend:
[1] = test system: P7 dispersed islets; assay: Glucose-stimulated insulin secretion by static incubation, insulin ELISA; format: cell-based, rat; details: 10^−11 M T3 for four days, FIG. 6B
Protocol: RHPA allows the evaluation of secretion from single beta cells (see, e.g., Bosco et al., Am. J. Physiol., 268:C611-C618, 1995; Aguayo-Mazzucato et al., PLoS ONE, 1:e35, 2006). Briefly, insulin secreted during incubation with glucose binds to anti-insulin antibody and complement and lyses RBCs forming hemolytic immunoplaques around secreting cells. Accordingly, the area of the hemolytic plaque is proportional to the amount of insulin secreted by that individual cell. Glucose-stimulated insulin secretion (GSIS) is reflected by the secretion index: the product of the percentage of secreting cells and the mean area of immunoplaques. RHPA is a very sensitive assay in which the proportion of cells secreting and the robustness of their secretion can be measured. […] Insulin secretion was measured in static conditions by sequential incubation in 2.6 mM and 16.8 mM glucose in Krebs-Ringer bicarbonate buffer (KRB, 16 mM HEPES and 0.1% BSA, pH 7.4) as previously described (Schuppin et al., In Vitro Cell Dev Biol Anim 29A:339-344 (1993); Salomon et al., Exp Cell Res 162:507-520 (1986)). […]
Similar results were found in static incubation experiments were performed with P7 dispersed islets cultured in the presence (or absence) of 10^−11 M T3 for four days. mRNA levels for MafA and Ins2 were evaluated using real-time PCR. […]

[2] = test system: neonatal islets; assay: Quantitative PCR of MafA, insulin and other gene transcription in dispersed neonatal islets cultured with glucose and T3; format: cell-based, rat; details: P7 islets cultured with glucose and T3 at 0.015 nM in CS-FBS for four days, separately and together, FIG. 5A legend
[3] = test system: neonatal islets; assay: as above; format: cell-based, rat; details: for insulin mRNA / MafA mRNA: 4 days
Protocol: To analyze the role of thyroid hormone during postnatal development of the endocrine pancreas, dispersed P7 islets were cultured with the two changing physiological stimuli identified so far glucose (11 mM and 20 mM) and tri-iodothyronine (T3 at 10^−11 M in charcoal-stripped fetal bovine serum (CS-FBS)), and after 4 days MafA and insulin transcription were assessed.
To further explore this idea, dispersed P8 islets were cultured with two changing physiological stimuli identified so far glucose (11 mM and 20 mM) and tri-iodothyronine (T3) at a concentration of 10^−11 M (T-11; gray bars) or with […] T3 (T-9) in charcoal-stripped fetal bovine serum (CS-FBS); after 4 days transcription levels of MafA and the MafA targets Ins2, GLP1R, PCSK1, PC, and LDH-A were assessed.
(§1) Similar results were found in static incubation experiments were performed with P7 dispersed islets cultured in the presence (or absence) of 10^−11 M T3 for four days. mRNA levels for MafA and Ins2 were evaluated using real-time PCR. […] To further evaluate insulin secretion in these cells, P8 islets were dispersed and then cultured for 4 days with and without 10^−11 M T3, and a reverse hemolytic plaque assay (RHPA) was used to evaluate insulin secretion from single beta cells. […] FIGS. 8A-8B show beta cell glucose responsiveness in 2.8 or 16.8 mM glucose in control cells (8A) or cells treated with T3 (8B) in one of the three RHPA experiments.

[4] = test system: single beta cells; assay: Reverse hemolytic plaque assay (RHPA) of insulin secretion from single beta cells; format: cell-based, rat
Protocol: RHPA allows the evaluation of secretion from single beta cells (see, e.g., Bosco et al., Am. J. Physiol., 268:C611-C618, 1995; Aguayo-Mazzucato et al., PLoS ONE, 1:e35, 2006). Briefly, insulin secreted during incubation with glucose binds to anti-insulin antibody and complement and lyses RBCs forming hemolytic immunoplaques around secreting cells. Accordingly, the area of the hemolytic plaque is proportional to the amount of insulin secreted by that individual cell. Glucose-stimulated insulin secretion (GSIS) is reflected by the secretion index: the product of the percentage of secreting cells and the mean area of immunoplaques. RHPA is a very sensitive assay in which the proportion of cells secreting and the robustness of their secretion can be measured. However it is laborious, therefore classic static insulin secretion studies were also performed with an insulin ELISA for measurement. Insulin secretion was measured in static conditions by sequential incubation in 2.6 mM and 16.8 mM glucose in Krebs-Ringer bicarbonate buffer (KRB, 16 mM HEPES and 0.1% BSA, pH 7.4) as previously described (Schuppin et al., In Vitro Cell Dev Biol Anim 29A:339-344 (1993); Salomon et al., Exp Cell Res 162:507-520 (1986)). Supernatants and cells were frozen until assayed for Insulin content.
as §1

[5] = test system: HPANC-1; details: non-insulin expressing human epithelial cell line HPANC-1, Misiti et al. 2005; cited from earlier work
[6] = test system: beta cells; details: Verga et al. 2006; cited from earlier work
[7] = test system: pancreatic acinar cells; details: Ledda-Columbano et al. 2005; cited from earlier work
[8] = in vivo administration, rats, Hartoft-Nielson et al. 2009; cited from earlier work
[9] = P8 islet cells treated with T3 vs control untreated cells, quantitative PCR, FIG. 9
[10] = P8 islets cultured for 4 days with 0.015 nM T3 (T-9)
[11] = dispersed P8 islets, glucose (11 mM and 20 mM) and T3, CS-FBS, FIG. 5C

With `N[C@@H](Cc1cc(I)c(Oc2ccc(O)c(I)c2)c(I)c1)C(=O)O` [T3, L-3,5,3′-triiodothyronine] the Glucose-stimulated insulin secretion [1] was “significantly increased”, the MafA transcription [2] was “increase” and the “MafA mRNA levels increase” value ([3]; P7 dispersed islets, 10^−11 M T3 for four days, real-time PCR, FIG. 6A) was “about two-fold”. The “transcription of MCT1” value [3, 9] was “significantly increases”, the “transcription of MafA” value [3, 9] was “significantly increases” and the “transcription of TRb” value [3, 9] was “significantly increases”. The “MafA mRNA increase compared with control cultured islets” value [3, 10] was 2.5 fold, the “insulin mRNA increase compared with control cultured islets” value [3, 10] was 71% and the “insulin mRNA” value ([3]; dispersed P7 islets, glucose (11 mM and 20 mM) and T3 at 10^−11 M in CS-FBS, stimuli separately and together) was “significantly increased”. The “MafA mRNA” value ([3]; dispersed P7 islets, glucose (11 mM and 20 mM) and T3 at 10^−11 M in CS-FBS, stimuli separately and together, FIG. 5A) was “significantly increased”, the “MafA mRNA” value [3, 11] was “significantly increased” and the “insulin mRNA” value [3, 11] was “significantly increased”. The “insulin secretion in response to 16.8 mM glucose” value ([4]; P7 cells cultured for 4 days with thyroid hormone, one experiment) was “an increase in insulin secretion”, the “insulin secretion in the presence 16.8 mM glucose” value ([4]; P7 cells treated with T3 compared to untreated control cells, FIGS. 7A and 7B legend) was “increases insulin secretion” and the insulin secretion index ([4]; dispersed P8 islets cultured for 4 days with 10^−11 M T3, FIG. 7A) was “marked increase”. The “percentage of insulin secreting cells” value ([4]; dispersed P8 islets cultured for 4 days with 10^−11 M T3, FIG. 7B) was “marked increase”, the “differentiation to or towards a glucose responsive insulin secreting cell line” value [5] was “promote differentiation” and the “apoptosis in beta cells” value [6] was “reduces apoptosis”. For the same compound, the “cell proliferation in beta cells” value [6] was “promotes cell proliferation”, the “proliferation in pancreatic acinar cells” value [7] was “promotes increased proliferation” and the “proliferation in pancreatic islet (e.g., beta cells) and ductal cells” value [7] was “but not in pancreatic islet (e.g., beta cells) and ductal cells”. The beta cell mass [8] was “increased” and the “incidence of type I diabetes” value [8] was “reduced”.
